Measurements: PubChem BioAssay (NCI)
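96-well plates; 48 h exposure; 5 concentrations. Endpoints by linear interpolation between flanking doses. Not reached: highest tested concentration assigned. The concentration for 50% growth inhibition is given as GI50. TGI is the concentration that stops growth completely.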

Columns and labels:
Experiment in all cases: NCI anticancer screen, dose series, 48 h
NCI-H23 lung = test system: NCI-H23 lung
MALME-3M melanoma = test system: MALME-3M melanoma
COLO 205 colon = test system: COLO 205 colon
SR leukemia = test system: SR leukemia
SK-MEL-5 melanoma = test system: SK-MEL-5 melanoma
NCI-H460 lung = test system: NCI-H460 lung
A549 NSCLC = test system: A549 NSCLC
OVCAR-3 ovarian = test system: OVCAR-3 ovarian
MDA-MB-231 breast = test system: MDA-MB-231 breast
RPMI-8226 leukemia = test system: RPMI-8226 leukemia
SK-MEL-2 melanoma = test system: SK-MEL-2 melanoma
DU-145 prostate = test system: DU-145 prostate
HT29 colon = test system: HT29 colon
ACHN renal = test system: ACHN renal
SF-268 CNS = test system: SF-268 CNS
SK-OV-3 ovarian = test system: SK-OV-3 ovarian
BT-549 breast = test system: BT-549 breast
NCI-H226 lung = test system: NCI-H226 lung
OVCAR-8 ovarian = test system: OVCAR-8 ovarian
LOX IMVI melanoma = test system: LOX IMVI melanoma
SF-539 CNS = test system: SF-539 CNS
EKVX NSCLC = test system: EKVX NSCLC
TK-10 renal = test system: TK-10 renal
A498 renal = test system: A498 renal
SN12C renal = test system: SN12C renal
OVCAR-4 ovarian = test system: OVCAR-4 ovarian
K-562 leukemia = test system: K-562 leukemia
U251 CNS = test system: U251 CNS
NCI/ADR-RES ovarian = test system: NCI/ADR-RES ovarian
MOLT-4 leukemia = test system: MOLT-4 leukemia
786-0 renal = test system: 786-0 renal
NCI-H522 lung = test system: NCI-H522 lung
HCT-15 colon = test system: HCT-15 colon
PC-3 prostate = test system: PC-3 prostate
OVCAR-5 ovarian = test system: OVCAR-5 ovarian
HCT-116 colon = test system: HCT-116 colon
T-47D breast = test system: T-47D breast
HOP-62 NSCLC = test system: HOP-62 NSCLC
MDA-MB-435 = test system: MDA-MB-435
HL-60(TB) leukemia = test system: HL-60(TB) leukemia
HOP-92 NSCLC = test system: HOP-92 NSCLC
HCC-2998 colon = test system: HCC-2998 colon
M14 melanoma = test system: M14 melanoma
SNB-19 CNS = test system: SNB-19 CNS
MCF7 breast = test system: MCF7 breast
UO-31 renal = test system: UO-31 renal
KM12 colon = test system: KM12 colon
SK-MEL-28 melanoma = test system: SK-MEL-28 melanoma
IGROV1 ovarian = test system: IGROV1 ovarian
RXF 393 renal = test system: RXF 393 renal
HS 578T breast = test system: HS 578T breast
CCRF-CEM leukemia = test system: CCRF-CEM leukemia
SNB-75 CNS = test system: SNB-75 CNS
UACC-257 melanoma = test system: UACC-257 melanoma
CAKI-1 renal = test system: CAKI-1 renal
SF-295 CNS = test system: SF-295 CNS
SW-620 colon = test system: SW-620 colon

Compound: CCCCn1c(=O)c2c(nc3n2CCCN3CCc2ccc(OCC(=O)NCCN(CC)CC)cc2)n(CCCC)c1=O
- GI50 (NCI-H23 lung): 6.51 µM
- TGI (NCI-H23 lung): 15.6 µM
- GI50 (MALME-3M melanoma): 922 nM
- TGI (MALME-3M melanoma): 1980 nM
- GI50 (COLO 205 colon): 1780 nM
- TGI (COLO 205 colon): 7.38 µM
- GI50 (SR leukemia): 1140 nM
- TGI (SR leukemia): 3.02 µM
- GI50 (SK-MEL-5 melanoma): 864 nM
- TGI (SK-MEL-5 melanoma): 1650 nM
- GI50 (NCI-H460 lung): 2200 nM
- TGI (NCI-H460 lung): 7.94 µM
- GI50 (A549 NSCLC): 7.12 µM
- TGI (A549 NSCLC): 15.4 µM
- GI50 (OVCAR-3 ovarian): 4.7 µM
- TGI (OVCAR-3 ovarian): 11.2 µM
- GI50 (MDA-MB-231 breast): 1910 nM
- TGI (MDA-MB-231 breast): 7.26 µM
- GI50 (RPMI-8226 leukemia): 1130 nM
- TGI (RPMI-8226 leukemia): 2900 nM
- GI50 (SK-MEL-2 melanoma): 6.7 µM
- TGI (SK-MEL-2 melanoma): 15.3 µM
- GI50 (DU-145 prostate): 4.56 µM
- TGI (DU-145 prostate): 35.3 µM
- GI50 (HT29 colon): 1910 nM
- TGI (HT29 colon): 6.4 µM
- GI50 (ACHN renal): 2980 nM
- TGI (ACHN renal): 10.6 µM
- GI50 (SF-268 CNS): 5.16 µM
- TGI (SF-268 CNS): 12.8 µM
- GI50 (SK-OV-3 ovarian): 5.93 µM
- TGI (SK-OV-3 ovarian): 12.6 µM
- GI50 (BT-549 breast): 2550 nM
- TGI (BT-549 breast): 8.85 µM
- GI50 (NCI-H226 lung): 7.13 µM
- TGI (NCI-H226 lung): 16.9 µM
- GI50 (OVCAR-8 ovarian): 7.1 µM
- TGI (OVCAR-8 ovarian): 26.4 µM
- GI50 (LOX IMVI melanoma): 929 nM
- TGI (LOX IMVI melanoma): 1990 nM
- GI50 (SF-539 CNS): 1870 nM
- TGI (SF-539 CNS): 7 µM
- GI50 (EKVX NSCLC): 5.2 µM
- TGI (EKVX NSCLC): 11.7 µM
- GI50 (TK-10 renal): 7.26 µM
- TGI (TK-10 renal): 14.6 µM
- GI50 (A498 renal): 540 nM
- TGI (A498 renal): 2510 nM
- GI50 (SN12C renal): 5.76 µM
- TGI (SN12C renal): 15.3 µM
- GI50 (OVCAR-4 ovarian): 2610 nM
- TGI (OVCAR-4 ovarian): 9.76 µM
- GI50 (K-562 leukemia): 1310 nM
- TGI (K-562 leukemia): 4.39 µM
- GI50 (U251 CNS): 2140 nM
- TGI (U251 CNS): 8.1 µM
- GI50 (NCI/ADR-RES ovarian): 5.42 µM
- TGI (NCI/ADR-RES ovarian): 27.9 µM
- GI50 (MOLT-4 leukemia): 2140 nM
- TGI (MOLT-4 leukemia): 10.5 µM
- GI50 (786-0 renal): 912 nM
- TGI (786-0 renal): 2000 nM
- GI50 (NCI-H522 lung): 7.5 µM
- TGI (NCI-H522 lung): 16.7 µM
- GI50 (HCT-15 colon): 1110 nM
- TGI (HCT-15 colon): 3.47 µM
- GI50 (PC-3 prostate): 1190 nM
- TGI (PC-3 prostate): 5.37 µM
- GI50 (OVCAR-5 ovarian): 7.58 µM
- TGI (OVCAR-5 ovarian): 18 µM
- GI50 (HCT-116 colon): 1630 nM
- TGI (HCT-116 colon): 6.42 µM
- GI50 (T-47D breast): 4.3 µM
- TGI (T-47D breast): 13.7 µM
- GI50 (HOP-62 NSCLC): 5.75 µM
- TGI (HOP-62 NSCLC): 14.7 µM
- GI50 (MDA-MB-435): 5.08 µM
- TGI (MDA-MB-435): 11.1 µM
- GI50 (HL-60(TB) leukemia): 5.97 µM
- TGI (HL-60(TB) leukemia): 15.6 µM
- GI50 (HOP-92 NSCLC): 846 nM
- TGI (HOP-92 NSCLC): 3.45 µM
- GI50 (HCC-2998 colon): 2930 nM
- TGI (HCC-2998 colon): 9.73 µM
- GI50 (M14 melanoma): 961 nM
- TGI (M14 melanoma): 1930 nM
- GI50 (SNB-19 CNS): 3.24 µM
- TGI (SNB-19 CNS): 11.4 µM
- GI50 (MCF7 breast): 1950 nM
- TGI (MCF7 breast): 8.97 µM
- GI50 (UO-31 renal): 1510 nM
- TGI (UO-31 renal): 7.86 µM
- GI50 (KM12 colon): 6.49 µM
- TGI (KM12 colon): 13.5 µM
- GI50 (SK-MEL-28 melanoma): 980 nM
- TGI (SK-MEL-28 melanoma): 2040 nM
- GI50 (IGROV1 ovarian): 5.83 µM
- TGI (IGROV1 ovarian): 15.4 µM
- GI50 (RXF 393 renal): 1650 nM
- TGI (RXF 393 renal): 6.76 µM
- GI50 (HS 578T breast): 1760 nM
- TGI (HS 578T breast): 11.2 µM
- GI50 (CCRF-CEM leukemia): 1130 nM
- TGI (CCRF-CEM leukemia): 3.9 µM
- GI50 (SNB-75 CNS): 1930 nM
- TGI (SNB-75 CNS): 10 µM
- GI50 (UACC-257 melanoma): 1020 nM
- TGI (UACC-257 melanoma): 2160 nM
- GI50 (CAKI-1 renal): 2630 nM
- TGI (CAKI-1 renal): 9.94 µM
- GI50 (SF-295 CNS): 877 nM
- TGI (SF-295 CNS): 1950 nM
- GI50 (SW-620 colon): 4.86 µM
- TGI (SW-620 colon): 11.2 µM
